Test results reported in patent US20100034746A1, “ANIMAL MODEL, SYSTEM, AND METHOD FOR SCREENING COMPOUNDS FOR ANTI[…]/OR TH[…]” (Piramal Life Sciences Limited, priority 2007, published 2010).

How the values were obtained:
thrombus formation [1] = assay: Cross-circulation thrombosis model, cannulae connected with latex tubing; survival time of recipient after blocking trachea; type: in vivo, Wistar rats; settings: cannula with latex tubing; for Survival time (min) Mean ± S.E.: recipient rat; for Survival time of the recipients, result in words: compared with vehicle/saline treated control animals
Description: Wistar rats (either sex; weighing 290-310 g) were used throughout the experiments. Animals were housed and cared for in accordance with the Guidelines in force published by CPCSEA (Committee for the Purpose of Control and Supervision of Experiments on Animals), Tamil Nadu, India. Procedures using laboratory animals were approved by the IAEC (Institutional Animal Ethics Committee) of the Research Centre of Nicholas Piramal India Limited, Mumbai, India.
In one experiment a pair of rats were anesthetized using urethane (1.5 g/kg; Fluka) by intra-peritoneal administration. After anesthetization, one of the jugular veins and carotid arteries of each of the rats were exposed and clamped. Polyethylene cannulae (0.76 mm ID and 1.22 mm OD, polyethylene tubing, each 6.0 cm in length; Portex Ltd) filled with normal saline (0.9%, w/v, sodium chloride, Merck) were introduced into these vessels and secured tightly by tying with cotton thread (No. 40, Madura Coats Ltd., India). Furthermore, trachea of any one of the rats was exposed and a piece of thread was put loosely around it (recipient). Then the arterial cannula of one of the rats was connected to the venous cannula of the other rat and vice versa, using 2.5 cm long piece of latex tubing (0.89 mm ID; PharMed, Cole-Parmer). FIG. 1 schematically illustrates these rats.
The experiment was initiated by opening the clamps on all the vessels, which initiated cross circulation of blood between the two animals. […] FIG. 2 schematically illustrates these rats.
Survival was monitored by the animal's effort to respire.
In another experiment, pairs of rats were treated with antithrombotic/thrombolytic agents selected from the following list:
The drug suspensions for oral use were prepared in the vehicle, carboxymethyl cellulose (CMC, 0.5% w/v, Sigma), using polyoxyethylenesorbitan monooleate (Tween 80, Sigma) as a wetting agent. Commercially available streptokinase solution was diluted with normal saline to an appropriate concentration for the i.v. use.
Vehicle/drugs were administered to rats orally at the doses mentioned above, in a volume of 1 ml/kg. With the exception of streptokinase, all other drugs were administered once daily for three consecutive days and the experiment was performed on the third day, one hour after the administration of the last dose. The vehicle-treated animals were used as controls.
Streptokinase was administered as a continuous infusion at a dose of 60,000 I.U./ml/kg/hour intravenously, through the femoral vein of the recipient and was administered only on the day of experiment. As a source of plasminogen, human plasma was injected to the animal intravenously at a dose of 1 ml/kg, just before blocking the trachea. Streptokinase infusion was initiated two minutes after blocking the trachea of the recipient. Saline-infused animals were used as control for streptokinase-treated animals.
(§1) The survival time of the recipients in the abovementioned experiments was recorded.

thrombus formation [2] = assay: Cross-circulation thrombosis model, cannulae connected with damaged rat thoracic aorta; survival time of recipient after blocking trachea; type: in vivo, Wistar rats
Description: In the present experiment, the piece of latex tubing used in Example 1 was replaced by a piece of rat thoracic aorta with damaged endothelium, so that the anti-thrombotic effect of the compounds could be studied in a near natural situation.
Maintenance of a patent vasculature is critical to provide blood flow to dependent tissues. […] Following vessel injury, active hemostasis results from vasoconstriction, adherence of activated platelets to damaged endothelium, their aggregation and activation of coagulation enzymes, finally resulting into thrombosis. It has been shown that chronic carbon tetrachloride treatment to rats causes serious damage to vascular endothelial cells and thus the blood vessels get damaged. It was thought of using these damaged vessels, instead of latex tubing (used in Example 1), to connect arterial and venous cannulae of donor and recipient, in order to mimic the physiological process of thrombus formation.
They were administered carbon tetrachloride (Fluka) in olive oil (Figaro, Spain) (1:1 v/v), 0.5 ml/kg, intraperitoneally, twice a week for eight continuous weeks. […]
In spite of the blocked trachea, the recipient survived, as long as the oxygenated blood supply from the donor continued. Survival was monitored by the animal's effort to respire. […]
as §1

[3] = 20 mg/kg p.o. once daily for three days, 1 h after last dose, CMC control 10.9 ± 0.70

Row | Compound | Survival time (min) Mean ± S.E. (thrombus formation [1]; [3]) | Survival time of the recipients, result in words (thrombus formation [1]) | also measured
1 | OCCN(CCO)c1nc(N2CCCCC2)c2nc(N(CCO)CCO)nc(N3CCCCC3)c2n1 [Dipyridamole] | 38.5 ± 1.55 min | – | –
2 | Streptokinase | – | significant prolongation of the survival time | Survival time (min) Mean ± S.E. (thrombus formation [1]; 60,000 IU/ml/kg/hr i.v. continuous infusion, human plasma 1 ml/kg i.v., saline control 10.4 ± 0.91): 89.5 ± 10.55 min
3 | CC(=O)Oc1ccccc1C(=O)O [Aspirin, acetylsalicylic acid] | – | Significant increase in the survival time | Survival time (min) Mean ± S.E. (thrombus formation [1]; 20 mg/kg p.o. once daily for three days, 1 h after last dose, CMC control 10.9 ± 0.70, 20 mg/kg): 45.3 ± 4.40 min; Survival time of the recipient, result in words (thrombus formation [2]; cannula with damaged blood vessel, compared with appropriate control animals): Significant increase in the survival time; Survival time (min) Mean ± S.E. (thrombus formation [2]; recipient rat, cannula with damaged thoracic aorta, 20 mg/kg p.o. once daily for three days, CMC control 5.18 ± 0.99): 33.9 ± 4.58 min
4 | COC(=O)[C@H](c1ccccc1Cl)N1CCc2sccc2C1 [Clopidogrel, Clopidogrel bisulphate] | 47.8 ± 3.78 min | – | –
